Measured values: patent US11261454B2, “Method for introducing a polynucleotide into non-adhesively growing plant cells” (ScreenSYS GmbH, priority 2010, dated 2022)

Assays:
auxin sensor construst = experiment: Luciferase activity measurement with auxin sensor construct (firefly/renilla ratio); type: cell-based
Text: Our further aim to combine PPTT with amiRNA and other functional screenings such as split-GFP, split-YFP etc. Since co-expression of vectors works perfect, split screenings could be done straight away using confirmed interacting pair. Transformation with the luciferase reporter and subsequent luciferase activity measurements were successfully tested using auxin sensor construst (FIG. 19).

[1] = tested on: protoplasts from wild type tobacco; experiment: Quantitative analysis of auxin mediated cell expansion of immobilised tobacco protoplasts (automated imaging); type: cell-based; conditions: auxin 0 to 50 μM, at least 200 cells per group
Text: We compared the effect of auxin concentration on cell elongation over a continuous period (4-6 days) using tobacco leaf protoplasts from wild type tobacco and from the tobacco line overexpressing AtPIN8 translationally fused with Venus fluorescent marker protein (PIN8VenusOx). Two strategies were used: • effect of PIN5 and PIN8 expression on cell elongation using transient transformation with dried DNA, protoplast immobilization and culture with manual cell imaging and tracking. • effect of auxin concentration (0, 1 pM, 10 pM, 100 pM, 500 pM, 1 nM, 10 nM, 100 nM, 500 nM, 1 μM, 2.5 μM, 5 μM, 10 μM, 25 μM and 50 μM) and quantitative analysis of cell elongation to compare wild type and PIN8VenusOx protoplasts using automated imaging (every 24 h for 4 days, 5 reference points) and computational image analysis.
Protoplasts were isolated and immobilized using our procedure described in the current patent application. Culture medium with final auxin concentration of 0, 1 pM, 10 pM, 100 pM, 500 pM, 1 nM, 10 nM, 100 nM, 500 nM, 1 μM, 2.5 μM, 5 μM. 10 μM. 25 μM and 50 μM was used for washing steps and cell culture afterwards in corresponding wells. […] This experiment allowed to extract quantitative information for hundreds cells per group, the whole experiment was performed in a single 96-well plate. […]

PIN1 = experiment: Expression of amiR^PIN1 in stable transgenic lines, plant phenotypes; type: in vivo, Arabidopsis (Col-0 wild-type background); conditions: independent lines

## O=C(O)Cc1cccc2ccccc12 [NAA]
Auxin sensor construst
  effect on firefly/renilla ratio: Concentration-dependent effect

## auxin
[1]
  cell expansion of developing protoplasts: Concentration-depended cell expansion

## amiR^P33: artificial miRNA TACGATTTGAACCATGAGGCC, SEQ ID NO:10 (expressed or natural sequence)
PIN1; 2 weeks after germination
  rosette leaf phenotype of transgenic plants: Altered phyllotaxis pattern of rosette leaves
PIN1
  shoot phenotype of transgenic lines: Altered shoot phyllotaxis and pin1-like shoot phenotypes
